Here are results for ten compounds from PubChem BioAssay (NCI).

Test systems include CCRF-CEM leukemia; DLD-1 colon; HOP-62 NSCLC; LOX IMVI melanoma; MCF7 breast; MOLT-4 leukemia; NCI/ADR-RES ovarian; OVCAR-4 ovarian; SK-MEL-2 melanoma; UACC-62 melanoma; UO-31 renal.
What all share (assay): NCI tumour cell line growth inhibition, 48 h

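Cultured in 96-well plates, cells were exposed to test compound for 48 hours across five concentrations. Here, GI50 denotes the concentration required for 50% inhibition of growth. TGI: concentration producing complete growth inhibition.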

On to `O=CNc1cccc2c3c([nH]c12)CCCCCC3`, for which the TGI in the assay with CCRF-CEM leukemia, with DLD-1 colon, in the assay on HOP-62 NSCLC, in the assay on LOX IMVI melanoma, in the assay with MCF7 breast and with MOLT-4 leukemia was above 100 µM throughout. Moreover, the TGI with NCI/ADR-RES ovarian, in the assay with OVCAR-4 ovarian, with SK-MEL-2 melanoma, with UACC-62 melanoma and in the assay with UO-31 renal was above 100 µM throughout.

As to `CCCCc1ccc2[n+](c1)C(C(=O)OCC)=PC2` (configuration not stated), the TGI in the assay with CCRF-CEM leukemia, in the assay with HOP-62 NSCLC, in the assay with MCF7 breast, in the assay with MOLT-4 leukemia, in the assay on OVCAR-4 ovarian and with UACC-62 melanoma was above 100 µM in each case.

For the compound `Cc1cc(NS(=O)(=O)c2ccc(Nc3c4ccccc4nc4c(C(=O)NCCN(C)C)ccc(Cl)c34)cc2)no1`, the TGI in the assay on CCRF-CEM leukemia came to 10.8 µM; in the assay with DLD-1 colon, 17 µM; with HOP-62 NSCLC, 17.3 µM; in the assay on LOX IMVI melanoma it was 10.9 µM; in the assay on MOLT-4 leukemia it was 1.74 µM; with OVCAR-4 ovarian, 17.6 µM. The TGI came out at 19.7 µM with SK-MEL-2 melanoma, 10.4 µM in the assay with UACC-62 melanoma and 7.84 µM in the assay with UO-31 renal.

On to `COc1ccc(C(=O)Cc2cc(OC)ccc2OC)cc1`, for which the TGI in the assay with CCRF-CEM leukemia, in the assay on DLD-1 colon, in the assay with HOP-62 NSCLC, with LOX IMVI melanoma, in the assay on MOLT-4 leukemia and in the assay on OVCAR-4 ovarian was above 100 µM each time. For the same compound, the TGI with SK-MEL-2 melanoma, with UACC-62 melanoma and in the assay with UO-31 renal was above 100 µM each time.

Regarding `C=C1C(=O)O[C@H]2C1[C@H](OC(=O)/C(C)=C\COC(C)=O)C[C@]1(CO1)[C@@H]1[C@H](O)[C@H]3O[C@@]3(C)[C@@H]12` (some centres not stated), the TGI is 54.2 µM in the assay with CCRF-CEM leukemia; 34.1 µM in the assay with DLD-1 colon; above 100 µM in the assay on HOP-62 NSCLC; 37.2 µM with LOX IMVI melanoma; 27.8 µM in the assay with MCF7 breast; above 73.3 µM with MOLT-4 leukemia. Also, the TGI was 54.7 µM in the assay with NCI/ADR-RES ovarian; above 77.3 µM in the assay on OVCAR-4 ovarian; 48.8 µM in the assay with SK-MEL-2 melanoma; 30.4 µM in the assay with UACC-62 melanoma; above 100 µM in the assay with UO-31 renal.

`O=C1c2ccccc2-c2ccc(NC(=O)C3CCCCC3C(=O)O)cc21` (configuration not stated): the TGI with CCRF-CEM leukemia, with HOP-62 NSCLC, with LOX IMVI melanoma, in the assay with MCF7 breast, with MOLT-4 leukemia and with NCI/ADR-RES ovarian was above 100 µM each time. Moreover, the TGI in the assay with OVCAR-4 ovarian, with SK-MEL-2 melanoma, with UACC-62 melanoma and in the assay on UO-31 renal was above 100 µM throughout.

Turning to `COc1cc(N=Nc2cccc(S(=O)(=O)O)c2)c(C)cc1N=Nc1ccc(/C=C/c2ccc(N=[N+]([O-])c3ccc(/C=C/c4ccc(N=Nc5cc(C)c(N=Nc6cccc(S(=O)(=O)O)c6)cc5OC)cc4)c(S(=O)(=O)O)c3)cc2S(=O)(=O)O)cc1`, the TGI in the assay with CCRF-CEM leukemia, with DLD-1 colon, in the assay with HOP-62 NSCLC, in the assay with LOX IMVI melanoma, in the assay with MCF7 breast and with MOLT-4 leukemia was above 100 µM throughout. For the same compound, the TGI with NCI/ADR-RES ovarian, with OVCAR-4 ovarian, with SK-MEL-2 melanoma, with UACC-62 melanoma and in the assay on UO-31 renal was above 100 µM in each case.

For the compound `COC(=O)C(C)N1C(=O)c2ccccc2I1OC(C)=O` (configuration not stated), the GI50 in the assay on CCRF-CEM leukemia was 18.1 µM; in the assay with LOX IMVI melanoma, 16.1 µM; in the assay on MCF7 breast, 30.7 µM; with MOLT-4 leukemia, 22 µM; with NCI/ADR-RES ovarian it was above 100 µM; in the assay on OVCAR-4 ovarian it was 51.3 µM. For the same compound, the GI50 in the assay with SK-MEL-2 melanoma is above 100 µM; with UACC-62 melanoma, 23 µM; with UO-31 renal, 54.2 µM. Besides, the TGI with CCRF-CEM leukemia was 45.5 µM; in the assay on LOX IMVI melanoma, 34.8 µM; with MCF7 breast it was above 100 µM; in the assay with MOLT-4 leukemia it was 45.7 µM; in the assay on NCI/ADR-RES ovarian, above 100 µM; in the assay on OVCAR-4 ovarian, above 100 µM. The TGI in the assay on SK-MEL-2 melanoma, in the assay with UACC-62 melanoma and in the assay on UO-31 renal was above 100 µM in each case.

In the case of `CCOC(=O)C1C(c2cc(OC)c(O)c(OC)c2)c2cc3c(cc2OC1(C)O)OCO3` (configuration not stated), the TGI in the assay on CCRF-CEM leukemia, in the assay with DLD-1 colon, in the assay with HOP-62 NSCLC, in the assay on LOX IMVI melanoma, in the assay with MOLT-4 leukemia and with OVCAR-4 ovarian was above 100 µM each time. Further, the TGI with SK-MEL-2 melanoma, in the assay with UACC-62 melanoma and in the assay with UO-31 renal was above 100 µM in each case.

As for `CC(C)=CCN(N=O)c1ncnc2nc[nH]c12`, the TGI in the assay on CCRF-CEM leukemia, with HOP-62 NSCLC, in the assay with LOX IMVI melanoma, in the assay with MCF7 breast, in the assay on MOLT-4 leukemia and in the assay on NCI/ADR-RES ovarian was above 100 µM each time. The TGI in the assay on OVCAR-4 ovarian and with UO-31 renal was above 100 µM each time.
